Test results as given in patent US8853246B2 (Dow AgroSciences LLC, priority 2009, dated 2014).
Read-outs that look alike come from different tables or passages of the source.

Columns and labels:
[1] = tested on: Sweetpotato Whitefly-Crawler (Bemisia Tabaci); assay: Insecticidal test for sweetpotato whitefly-crawler in foliar spray assay (col. BEMITA); format: in vivo; settings: for pest or weed control at 200 ppm: Bemisia tabaci, read-out: BEMITA 200 ppm (Corrected % Control, rating)
Summary of the method: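 Percent control, Abbott-corrected against diluent-sprayed plants, from microscope counts of live nymphs 8-9 days after treatment. Test solution at 200 ppm in 0.025% aqueous Tween 20 applied to both leaf sides of egg-infested cotton after a 5-6 day hatch period (82° F, 50% RH).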

[2] = tested on: Green Peach Aphid (Myzus Persicae); assay: Insecticidal test for green peach aphid in foliar spray assay (col. MYZUPE); format: in vivo; settings: for pest or weed control at 200 ppm: Myzus persicae, 72 h, read-out: MYZUPE 200 ppm (Corrected % Control, rating)
Summary of the method: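 Corrected % control derives from microscope counts of live aphids per plant, treated against diluent-only checks, 3 days after foliar spraying at ~25 °C and 40% RH. Test solution was 200 ppm in 0.025% aqueous Tween 20, applied to both leaf sides of infested cabbage seedlings, four pots each.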

[3] = tested on: Cotton Aphid (Aphis Gossypii); assay: Insecticidal test for cotton aphid in foliar spray assay (col. APHIGO); format: in vivo; settings: for pest or weed control at 200 ppm: Aphis gossypii, 72 h, read-out: APHIGO 200 ppm (Corrected % Control, rating)
Protocol: The compounds were tested against cotton aphid, green peach aphid, and sweet potato whitefly using procedures described in the following examples and reported in Table 2.
In each case of Table 2, the rating scale is as follows at 200 ppm.
Insecticidal Test for Cotton Aphid (Aphis Gossypii) in Foliar Spray Assay
Squash or cotton seedlings with fully expanded cotyledon leaves were trimmed to one cotyledon per plant and infested with cotton aphid (wingless adult and nymph) one day prior to chemical application. Each plant was examined before chemical application to ensure uniform infestation (ca. 30-70 aphids per plant). Compounds (2 mg) were dissolved in 2 mL of acetone/methanol (1:1) solvent, forming stock solutions of 1000 ppm. The stock solutions were diluted 5× with 0.025% Tween 20 in H2O to obtain a solution at 200 ppm. A hand-held Devilbiss aspirator type sprayer was used to apply the spray solutions until runoff to both sides of the squash cotyledon leaves. Four plants (4 replications) were used for each concentration of each compound. Reference plants (solvent check) were sprayed with the diluent only. Treated plants were held in a holding room for three days at approximately 25° C. and 40% RH before the number of live aphids on each plant was recorded. Insecticidal activity was measured by Corrected % Control using Abbott's correction formula and presented in Table 2 (see col. “APHIGO”): Corrected % Control=100*(X−Y)/X • where X=No. of live aphids on solvent check plants • Y=No. of live aphids on treated plants

| Compound | pest or weed control at 200 ppm ([1]; sweetpotato whitefly-crawler) | pest or weed control at 200 ppm ([2]; green peach aphid) | pest or weed control at 200 ppm [3] | melting point | BEMITA 200 ppm (Corrected % Control, rating) ([1]; sweetpotato whitefly-crawler) | MYZUPE 200 ppm (Corrected % Control, rating) ([2]; green peach aphid) | APHIGO 200 ppm (Corrected % Control, rating) [3] | pest or weed control at 200 ppm ([1]; Abbott's correction formula) | pest or weed control at 200 ppm ([2]; Abbott's correction formula) |
| --- | --- | --- | --- | --- | --- | --- | --- | --- | --- |
| CSCCC(=O)N(C)c1cnc(-c2cccnc2)s1 [Compound 19, N-methyl-3-methylsulfanyl-N-(2-pyridin-3-yl-thiazol-5-yl)-propionamide] | < 80% | 80 to 100% | < 80% | – | – | – | – | – | – |
| CCN(C(=O)C(C)CSC)c1sc(-c2cccnc2)nc1C (stereo not drawn) [Compound 210] | 80 to 100% | 80 to 100% | 80 to 100% | – | – | – | – | – | – |
| CSC(C)CC(=O)Nc1sc(-c2cncc(F)c2)nc1C (stereo not drawn) [Compound 218] | 80 to 100% | 80 to 100% | 80 to 100% | 130 to 133 °C | – | – | – | – | – |
| C=CCSCC(C)C(=O)Nc1sc(-c2cncc(F)c2)nc1C (stereo not drawn) [Compound 226] | 80 to 100% | 80 to 100% | 80 to 100% | 76 to 79 °C | – | – | – | – | – |
| CSCC(C)C(=O)N(C)c1sc(-c2cccnc2)nc1Cl (stereo not drawn) [Compound 227, N-(4-chloro-2-pyridin-3-yl-thiazol-5-yl)-2,N-dimethyl-3-methylsulfanyl-propionamide] | 80 to 100% | 80 to 100% | 80 to 100% | – | – | – | – | – | – |
| CN(C(=O)OC(C)(C)C)c1sc(-c2cccnc2)nc1Cl [Compound 228, (4-chloro-2-pyridin-3-yl-thiazol-5-yl)-methyl-carbamic acid tert-butyl ester] | 80 to 100% | 80 to 100% | 80 to 100% | 119 to 122 °C | – | – | – | – | – |
| C=CC[S+]([O-])CC(C)C(=O)Nc1sc(-c2cncc(F)c2)nc1C (stereo not drawn) [Compound 229] | < 80% | 80 to 100% | 80 to 100% | 170 to 174 °C | – | – | – | – | – |
| CC(C[S+](C)[O-])C(=O)N(C)c1sc(-c2cccnc2)nc1Cl (stereo not drawn) [Compound 230] | 80 to 100% | 80 to 100% | 80 to 100% | – | – | – | – | – | – |
| CCN(C(=O)C(C)C)c1sc(-c2cccnc2)nc1C [Compound 233] | 80 to 100% | 80 to 100% | 80 to 100% | – | – | – | – | – | – |
| CCN(C(=O)C(C)C[S+](C)[O-])c1sc(-c2cccnc2)nc1C (stereo not drawn) [Compound 234] | 80 to 100% | 80 to 100% | 80 to 100% | – | – | – | – | – | – |
| CCN(C(=O)C(C)CS(C)(=O)=O)c1sc(-c2cccnc2)nc1C (stereo not drawn) [Compound 235] | – | – | – | – | A (80-100) | A (80-100) | A (80-100) | – | – |
| CCN(C(=O)C(C)CSC)c1sc(-c2cncc(F)c2)nc1C (stereo not drawn) [Compound 240] | 80 to 100% | 80 to 100% | 80 to 100% | – | – | – | – | – | – |
| CN(C(=O)OC(C)(C)C)c1sc(-c2cccnc2)nc1Br [Compound 242, (4-bromo-2-pyridin-3-yl-thiazol-5-yl)-methyl-carbamic acid tert-butyl ester] | 80 to 100% | 80 to 100% | < 80% | 88 to 91 °C | – | – | – | – | – |
| CN(C(=O)OC(C)(C)C)c1cnc(-c2cncc(F)c2)s1 [Compound 243] | 80 to 100% | 80 to 100% | 80 to 100% | 148 to 151 °C | – | – | – | – | – |
| COc1ccc(CN(C(=O)OC(C)(C)C)c2cnc(-c3cccnc3)s2)cc1 [Compound 244] | < 80% | < 80% | < 80% | 124 to 126 °C | – | – | – | – | – |
| CCN(C(=O)OC(C)(C)C)c1cnc(-c2cncc(F)c2)s1 [Compound 245] | 80 to 100% | 80 to 100% | 80 to 100% | 89 to 92 °C | – | – | – | – | – |
| CCN(C(=O)C(C)(C)CS(C)(=O)=O)c1sc(-c2cccnc2)nc1C [Compound 250] | < 80% | 80 to 100% | < 80% | – | – | – | – | – | – |
| CCN(C(=O)C(C)C)c1sc(-c2cncc(F)c2)nc1C [Compound 253] | 80 to 100% | 80 to 100% | 80 to 100% | – | – | – | – | – | – |
| CCN(C(=O)C(C)(C)CSC)c1sc(-c2cncc(F)c2)nc1C [Compound 255] | 80 to 100% | 80 to 100% | 80 to 100% | – | – | – | – | – | – |
| CSCC(C)C(=O)N(C)c1sc(-c2cncc(F)c2)nc1Cl (stereo not drawn) [Compound 262] | 80 to 100% | 80 to 100% | 80 to 100% | – | – | – | – | – | – |
| CC(C[S+](C)[O-])C(=O)N(C)c1sc(-c2cncc(F)c2)nc1Cl (stereo not drawn) [Compound 270] | 80 to 100% | 80 to 100% | < 80% | – | – | – | – | – | – |
| CN(C(=O)CC[S+](C)[O-])c1sc(-c2cncc(F)c2)nc1Cl (stereo not drawn) [Compound 272] | 80 to 100% | 80 to 100% | 80 to 100% | 123 to 126 °C | – | – | – | – | – |
| CCN(C(=O)CCSC)c1sc(-c2cncc(F)c2)nc1Cl [Compound 274] | 80 to 100% | 80 to 100% | 80 to 100% | – | – | – | – | – | – |
| CCN(C(=O)C(C)CSC)c1sc(-c2cncc(F)c2)nc1Cl (stereo not drawn) [Compound 279] | 80 to 100% | 80 to 100% | 80 to 100% | – | – | – | – | – | – |
| Cc1nc(-c2cncc(F)c2)sc1N(C)C(=O)C1CCCN(C(=S)NC2CC2)C1 (stereo not drawn) [Compound 585] | – | – | – | 190 to 192 °C | – | – | – | < 80% | 80 to 100% |
| CSCCC(=O)Nc1sc(-c2cccnc2)nc1SC [Compound 589, 3-(methylthio)-N-(4-(methylthio)-2-(pyridin-3-yl)thiazol-5-yl)propanamide] | – | – | – | 72 to 74 °C | – | – | – | < 80% | < 80% |
